Results taken from the NIST ThermoML archive (doi:10.1016/j.jct.2003.11.008).

Key:
[1] = 318.15 K; 101.33 kPa; Liquid; Vibrating tube method
[2] = refractive index (Na D-line) (dimensionless); settings: 318.15 K; 101.33 kPa; Liquid; Standard Abbe refractometry
[3] = xn = mol fraction of the nth substance listed; settings: 318.15 K, 101.3 kPa, Liquid
[4] = excess molar enthalpy (molar enthalpy of mixing); xn = mol fraction of the nth substance listed; settings: 318.15 K, 101.3 kPa, Liquid

CCCCCCCCCCCCCCC [pentadecane]
Settings | mass density [kg/m3] | refractive index
[1] | 750.9 | –
[2] | – | 1.4212

CCCCCCCCCCCCC [tridecane]
Settings | mass density [kg/m3] | refractive index
[1] | 738.34 | –
[2] | – | 1.4155

CCCCCCCCCCCCCCCCC [heptadecane]
Settings | mass density [kg/m3] | refractive index
[1] | 760.8 | –
[2] | – | 1.4268

CCOC(C)=O [ethyl acetate]
Settings | mass density [kg/m3] | refractive index
[1] | 869.54 | –
[2] | – | 1.3597

CCCCCCCCCCCCC [tridecane] + CCCOC(C)=O
Settings | excess molar enthalpy [kcal/mol] | excess molar volume [m3/mol]
[3], x2 = 0.1139 | – | 4.77e-07
[3], x2 = 0.1844 | – | 7.09e-07
[3], x2 = 0.2748 | – | 9.32e-07
[3], x2 = 0.3425 | – | 1.072e-06
[3], x2 = 0.4123 | – | 1.16e-06
[3], x2 = 0.4772 | – | 1.205e-06
[3], x2 = 0.5337 | – | 1.232e-06
[3], x2 = 0.5864 | – | 1.216e-06
[3], x2 = 0.6311 | – | 1.183e-06
[3], x2 = 0.6791 | – | 1.139e-06
[3], x2 = 0.722 | – | 1.069e-06
[3], x2 = 0.7535 | – | 1.012e-06
[3], x2 = 0.7862 | – | 9.31e-07
[3], x2 = 0.8631 | – | 6.98e-07
[3], x2 = 0.9199 | – | 4.58e-07
[3], x2 = 0.9642 | – | 2.27e-07
[4], x2 = 0.087 | 0.103 | –
[4], x2 = 0.1659 | 0.187 | –
[4], x2 = 0.2413 | 0.26 | –
[4], x2 = 0.3093 | 0.312 | –
[4], x2 = 0.3709 | 0.349 | –
[4], x2 = 0.4257 | 0.372 | –
[4], x2 = 0.477 | 0.386 | –
[4], x2 = 0.5193 | 0.39 | –
[4], x2 = 0.5602 | 0.391 | –
[4], x2 = 0.6296 | 0.379 | –
[4], x2 = 0.6706 | 0.367 | –
[4], x2 = 0.716 | 0.346 | –
[4], x2 = 0.7628 | 0.317 | –
[4], x2 = 0.809 | 0.272 | –
[4], x2 = 0.8594 | 0.218 | –
[4], x2 = 0.9097 | 0.158 | –
[4], x2 = 0.9585 | 0.0781 | –

CCCCCCCCCCCCC [tridecane] + CCOC(C)=O
Settings | excess molar enthalpy [kcal/mol] | excess molar volume [m3/mol]
[3], x2 = 0.1246 | – | 6.09e-07
[3], x2 = 0.2249 | – | 9.81e-07
[3], x2 = 0.3076 | – | 1.215e-06
[3], x2 = 0.3854 | – | 1.386e-06
[3], x2 = 0.4562 | – | 1.461e-06
[3], x2 = 0.5148 | – | 1.515e-06
[3], x2 = 0.5732 | – | 1.518e-06
[3], x2 = 0.6235 | – | 1.506e-06
[3], x2 = 0.6695 | – | 1.462e-06
[3], x2 = 0.7136 | – | 1.402e-06
[3], x2 = 0.7509 | – | 1.322e-06
[3], x2 = 0.775 | – | 1.255e-06
[3], x2 = 0.8123 | – | 1.128e-06
[3], x2 = 0.881 | – | 8.36e-07
[3], x2 = 0.9317 | – | 5.36e-07
[3], x2 = 0.9691 | – | 2.65e-07
[4], x2 = 0.0838 | 0.122 | –
[4], x2 = 0.1616 | 0.217 | –
[4], x2 = 0.2388 | 0.302 | –
[4], x2 = 0.3097 | 0.371 | –
[4], x2 = 0.3743 | 0.42 | –
[4], x2 = 0.4307 | 0.449 | –
[4], x2 = 0.4842 | 0.467 | –
[4], x2 = 0.532 | 0.478 | –
[4], x2 = 0.5728 | 0.479 | –
[4], x2 = 0.6188 | 0.474 | –
[4], x2 = 0.6556 | 0.463 | –
[4], x2 = 0.6946 | 0.449 | –
[4], x2 = 0.7336 | 0.427 | –
[4], x2 = 0.7755 | 0.396 | –
[4], x2 = 0.8179 | 0.354 | –
[4], x2 = 0.8605 | 0.3 | –
[4], x2 = 0.9015 | 0.239 | –
[4], x2 = 0.9432 | 0.161 | –
[4], x2 = 0.9761 | 0.0749 | –
